The text below walks through data of patent US8450454B2, “Compositions for inhibiting ABAD/ABeta protein interaction” (The Trustees of Columbia University in the City of New York, priority 2004, dated 2013).

Series [1] deals with T1, ABAD-Aβ (1-40) interaction (Homo sapiens, UniProt P05067).
T1 construct: made in house
In words: Surface plasmon resonance (Biacore): inhibition of Aβ (1-40) binding to immobilized ABAD. The note with it: one-site competitive inhibition fit. The method, then:
(§1) 3) and ABAD reverse peptide (ABAD-RP, residues 120-92) were synthesized by Biotechnology Lab at Yale University. For binding studies, ABAD was immobilized on CM5 sensor chip (29). […] The reaction/binding buffer contained 50 mM Hepes at pH 7.4, 0.15 M NaCl, 1 mM EDTA, and 0.005% Tween 20. Data analysis was performed using Biacore X biosensor system (Uppsala, Sweden) and BIA evaluation 3.0 software (Biacore, Sweden). Response data are plotted in Resonance Units versus ABAD peptide concentrations (nM), and were fit to a one-site model for competitive inhibition to obtain the Ki.
(In general: SPR reads the build-up and loss of mass on a sensor chip optically.)

Series [2] deals with T2, ABAD-Aβ (1-42) interaction (Homo sapiens, UniProt P05067).
T2 construct: made in house
T2 sequence (P05067 672-713): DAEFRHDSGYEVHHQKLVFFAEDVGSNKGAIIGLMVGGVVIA
The experiment in a line: Surface plasmon resonance (Biacore): inhibition of Aβ (1-42) binding to immobilized ABAD. The note with it: one-site competitive inhibition fit. As for the experimental part: as §1

For series [3], the system named is cultured neurons. In words: DNA fragmentation (Cell Death Detection ELISA) in cultured neurons. The note with it: neurons from Tg mAPP/ABAD mice (spontaneous) and Tg ABAD mice exposed to Aβ, peptide pretreatment. Format: cell-based, mouse.
The target in the next series is T3, ABAD (Homo sapiens, UniProt Q99714).
T3 construct: made in house
T3 sequence (Q99714 1-261): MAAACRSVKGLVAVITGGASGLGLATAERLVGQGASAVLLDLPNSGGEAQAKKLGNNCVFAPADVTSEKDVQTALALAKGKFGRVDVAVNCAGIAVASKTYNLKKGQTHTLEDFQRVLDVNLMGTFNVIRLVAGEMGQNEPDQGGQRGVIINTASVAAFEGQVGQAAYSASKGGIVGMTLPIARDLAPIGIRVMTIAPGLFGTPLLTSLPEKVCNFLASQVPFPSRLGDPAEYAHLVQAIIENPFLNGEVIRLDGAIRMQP
The experiment in a line: Binding of fluorescein-labeled ABAD to amyloid-related peptide immobilized on microtiter wells.

For series [4], the system named is cultured neurons. The experiment in a line: LDH release from cultured neurons. Format: cell-based, mouse. To be noted: neurons from Tg mAPP/ABAD mice (spontaneous) and Tg ABAD mice exposed to Aβ, peptide pretreatment.
For another series, the target named is Aβ (1-42) (Homo sapiens, UniProt P05067). In words: Binding of 125I-labeled GST-ABAD or ABAD mutants to immobilized Aβ (1-42). Details: key: +: Specific binding comparable to that observed with wild type ABAD; −: No observed specific binding. The note with it: 125I-labeled GST-ABAD or ABAD to immobilized Aβ (1-42).
Chain of Aβ (1-42) (P05067 672-713): as the sequence (P05067 672-713) above
The next series concerns the target Aβ (1-40) (Homo sapiens, UniProt P05067). The experiment in a line: Surface plasmon resonance: Aβ (1-40) binding to immobilized wild-type or mutant ABAD. The note with it: ABAD immobilized on sensor chip, Aβ (1-40) mobile phase. As for the experimental part:
[…]; SEQ ID NO. 3) and ABAD reverse peptide (ABAD-RP, residues 120-92) were synthesized by Biotechnology Lab at Yale University. For binding studies, ABAD was immobilized on CM5 sensor chip (29). […] The reaction/binding buffer contained 50 mM Hepes at pH 7.4, 0.15 M NaCl, 1 mM EDTA, and 0.005% Tween 20. Data analysis was performed using Biacore X biosensor system (Uppsala, Sweden) and BIA evaluation 3.0 software (Biacore, Sweden). Response data are plotted in Resonance Units versus ABAD peptide concentrations (nM), and were fit to a one-site model for competitive inhibition to obtain the Ki.

Ends that are not written are not given here.

T1 sequence (P05067 672-711): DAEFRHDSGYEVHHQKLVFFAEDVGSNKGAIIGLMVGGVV
Chain of Aβ (1-40) (P05067 672-711): as above

“VDLVRQFDELTHTQGKKLNYTKSAVAIGA [ABAD-RP, reference compound]”: in series [1], the “inhibitory constant, binding of Aβ (1-40) to immobilized intact ABAD” value is “completely inactive”. Besides, the “inhibitory constant, binding of Aβ (1-42) to immobilized intact ABAD” value in series [2] was “completely inactive”. In addition, in the series on cultured neurons [3], the “DNA fragmentation (cytotoxicity)” value was “not”.
The Kd is the equilibrium constant for the complex coming apart. As for GSNKGAIIGLM [Aβ 25-35], on ABAD, the “binding to ABAD (in words)” value is listed as “no specific binding”. The Kd on ABAD (peptide immobilized on microtiter wells, fluorescein-labeled ABAD added) was greater than 1000 nM.
On to `CC[C@H](C)[C@H](NC(=O)[C@H](C)NC(=O)CNC(=O)[C@H](Cc1ccccc1)NC(=O)[C@H](CC(N)=O)NC(=O)[C@H](CC(N)=O)NC(=O)[C@H](CO)NC(=O)[C@H](CO)NC(=O)[C@H](Cc1c[nH]cn1)NC(=O)[C@@H](NC(=O)[C@H](CC(C)C)NC(=O)[C@H](Cc1ccccc1)NC(=O)[C@H](CC(N)=O)NC(=O)[C@H](C)NC(=O)[C@H](CC(C)C)NC(=O)[C@H](CCCNC(=N)N)NC(=O)[C@H](CCC(N)=O)NC(=O)[C@@H](NC(=O)[C@H](C)NC(=O)[C@@H]1CSSC[C@H](NC(=O)[C@@H](N)CCCCN)C(=O)N[C@@H](CC(N)=O)C(=O)N[C@@H]([C@@H](C)O)C(=O)N[C@@H](C)C(=O)N[C@@H]([C@@H](C)O)C(=O)N1)[C@@H](C)O)C(C)C)C(=O)N[C@@H](CC(C)C)C(=O)N[C@@H](CO)C(=O)N[C@@H](CO)C(=O)N[C@H](C(=O)N[C@@H](CC(N)=O)C(=O)N[C@H](C(=O)NCC(=O)N[C@@H](CO)C(=O)N[C@@H](CC(N)=O)C(=O)N[C@H](C(=O)N[C@@H](Cc1ccc(O)cc1)C(N)=O)[C@@H](C)O)C(C)C)[C@@H](C)O` [Amylin], for which, at ABAD, the “binding to ABAD (in words)” value was “did not bind”.
Take `CC[C@H](C)[C@H](NC(=O)CNC(=O)[C@H](C)N)C(=O)N[C@@H](C)C(=O)N[C@H](C(=O)N[C@@H](C)C(=O)N[C@@H](CO)C(=O)N[C@@H](CCCCN)C(=O)N[C@H](C(=O)N[C@@H](Cc1ccc(O)cc1)C(=O)N[C@@H](CC(N)=O)C(=O)N[C@@H](CC(C)C)C(=O)N[C@@H](CCCCN)C(=O)N[C@@H](CCCCN)C(=O)NCC(=O)N[C@@H](CCC(N)=O)C(=O)N[C@H](C(=O)N[C@@H](Cc1c[nH]cn1)C(=O)N[C@H](C(=O)N[C@@H](CC(C)C)C(=O)N[C@@H](CCC(=O)O)C(=O)N[C@@H](CC(=O)O)C(=O)N[C@@H](Cc1ccccc1)C(=O)N[C@@H](CCC(N)=O)C(=O)N[C@@H](CCCNC(=N)N)C(=O)N[C@H](C(=O)N[C@@H](CC(C)C)C(=O)N[C@@H](CC(=O)O)C(=O)N[C@H](C(=O)O)C(C)C)C(C)C)[C@@H](C)O)[C@@H](C)O)[C@@H](C)O)C(C)C` [ABAD-DP]: the “DNA fragmentation (cytotoxicity)” value in the series on cultured neurons [3] is recorded as “attenuated cytotoxicity”. Moreover, the “LDH release (cytotoxicity)” value with cultured neurons [4] is given as “attenuated cytotoxicity”.
Regarding `CC(C)C[C@H](NC(=O)[C@H](CCCCN)NC(=O)[C@H](CCC(N)=O)NC(=O)[C@H](Cc1c[nH]cn1)NC(=O)[C@H](Cc1c[nH]cn1)NC(=O)[C@@H](NC(=O)[C@H](CCC(=O)O)NC(=O)[C@H](Cc1ccc(O)cc1)NC(=O)CNC(=O)[C@H](CO)NC(=O)[C@H](CC(=O)O)NC(=O)[C@H](Cc1c[nH]cn1)NC(=O)[C@H](CCCNC(=N)N)NC(=O)[C@H](Cc1ccccc1)NC(=O)[C@H](CCC(=O)O)NC(=O)[C@H](C)NC(=O)[C@@H](N)CC(=O)O)C(C)C)C(=O)N[C@H](C(=O)N[C@@H](Cc1ccccc1)C(=O)N[C@@H](Cc1ccccc1)C(=O)O)C(C)C` [Aβ 1-20], the “binding to ABAD (in words)” value at ABAD is given as “dose-dependent binding”.

B1: GST-ABAD(1-186): GST-ABAD truncation mutant, residues 1-186 (protein)
chain: MAAACRSVKGLVAVITGGASGLGLATAERLVGQGASAVLLDLPNSGGEAQAKKLGNNCVFAPADVTSEKDVQTALALAKGKFGRVDVAVNCAGIAVASKTYNLKKGQTHTLEDFQRVLDVNLMGTFNVIRLVAGEMGQNEPDQGGQRGVIINTASVAAFEGQVGQAAYSASKGGIVGMTLPIARDL
modifications: left off: a dimerising Fc or GST
With B1, the “Aβ Binding” value with Aβ (1-42) was “+”.

B2: GST-ABAD(1-158): GST-ABAD truncation mutant, residues 1-158 (protein)
chain: MAAACRSVKGLVAVITGGASGLGLATAERLVGQGASAVLLDLPNSGGEAQAKKLGNNCVFAPADVTSEKDVQTALALAKGKFGRVDVAVNCAGIAVASKTYNLKKGQTHTLEDFQRVLDVNLMGTFNVIRLVAGEMGQNEPDQGGQRGVIINTASVAA
modifications: left off: a dimerising Fc or GST
With B2, the “Aβ Binding” value in the series with Aβ (1-42) is “+”.

B3: S98A, K99A, Y101A: site-directed ABAD mutant (protein, UniProt Q99714 2-261, looked up, variant S98A K99A Y101A)
3-hydroxyacyl-CoA …: AAACRSVKGLVAVITGGASGLGLATAERLVGQGASAVLLDLPNSGGEAQAKKLGNNCVFAPADVTSEKDVQTALALAKGKFGRVDVAVNCAGIAVAAATANLKKGQTHTLEDFQRVLDVNLMGTFNVIRLVAGEMGQNEPDQGGQRGVIINTASVAAFEGQVGQAAYSASKGGIVGMTLPIARDLAPIGIRVMTIAPGLFGTPLLTSLPEKVCNFLASQVPFPSRLGDPAEYAHLVQAIIENPFLNGEVIRLDGAIRMQP
Regarding B3, the “Aβ Binding” value with Aβ (1-42) is “−”. In the series with Aβ (1-40), the “interaction with Aβ in surface plasmon resonance” value was “no specific interaction”.

B4: GST-ABAD(159-261): GST-ABAD truncation mutant, residues 159-261 (protein)
chain: FEGQVGQAAYSASKGGIVGMTLPIARDLAPIGIRVMTIAPGLFGTPLLTSLPEKVCNFLASQVPFPSRLGDPAEYAHLVQAIIENPFLNGEVIRLDGAIRMQP
modifications: left off: a dimerising Fc or GST
On to B4, for which the “Aβ Binding” value with Aβ (1-42) is on record as “−”.
